The source of these data is patent US9815841B2, “Compounds” (GLAXOSMITHKLINE INTELLECTUAL PROPERTY DEVELOPMENT LIMITED, priority 2014, dated 2017).

For this test, the target named is T1, recombinant full length LRRK2 over-expressed in SH-SY5Y cells (Homo sapiens, UniProt Q5S007).
T1 construct: A BacMam virus expressing full length recombinant LRRK2 was purchased from Invitrogen; host or cells: SH-SY5Y human neuroblastoma cells transduced with BacMam LRRK2 virus
T1 sequence (Q5S007 whole entry): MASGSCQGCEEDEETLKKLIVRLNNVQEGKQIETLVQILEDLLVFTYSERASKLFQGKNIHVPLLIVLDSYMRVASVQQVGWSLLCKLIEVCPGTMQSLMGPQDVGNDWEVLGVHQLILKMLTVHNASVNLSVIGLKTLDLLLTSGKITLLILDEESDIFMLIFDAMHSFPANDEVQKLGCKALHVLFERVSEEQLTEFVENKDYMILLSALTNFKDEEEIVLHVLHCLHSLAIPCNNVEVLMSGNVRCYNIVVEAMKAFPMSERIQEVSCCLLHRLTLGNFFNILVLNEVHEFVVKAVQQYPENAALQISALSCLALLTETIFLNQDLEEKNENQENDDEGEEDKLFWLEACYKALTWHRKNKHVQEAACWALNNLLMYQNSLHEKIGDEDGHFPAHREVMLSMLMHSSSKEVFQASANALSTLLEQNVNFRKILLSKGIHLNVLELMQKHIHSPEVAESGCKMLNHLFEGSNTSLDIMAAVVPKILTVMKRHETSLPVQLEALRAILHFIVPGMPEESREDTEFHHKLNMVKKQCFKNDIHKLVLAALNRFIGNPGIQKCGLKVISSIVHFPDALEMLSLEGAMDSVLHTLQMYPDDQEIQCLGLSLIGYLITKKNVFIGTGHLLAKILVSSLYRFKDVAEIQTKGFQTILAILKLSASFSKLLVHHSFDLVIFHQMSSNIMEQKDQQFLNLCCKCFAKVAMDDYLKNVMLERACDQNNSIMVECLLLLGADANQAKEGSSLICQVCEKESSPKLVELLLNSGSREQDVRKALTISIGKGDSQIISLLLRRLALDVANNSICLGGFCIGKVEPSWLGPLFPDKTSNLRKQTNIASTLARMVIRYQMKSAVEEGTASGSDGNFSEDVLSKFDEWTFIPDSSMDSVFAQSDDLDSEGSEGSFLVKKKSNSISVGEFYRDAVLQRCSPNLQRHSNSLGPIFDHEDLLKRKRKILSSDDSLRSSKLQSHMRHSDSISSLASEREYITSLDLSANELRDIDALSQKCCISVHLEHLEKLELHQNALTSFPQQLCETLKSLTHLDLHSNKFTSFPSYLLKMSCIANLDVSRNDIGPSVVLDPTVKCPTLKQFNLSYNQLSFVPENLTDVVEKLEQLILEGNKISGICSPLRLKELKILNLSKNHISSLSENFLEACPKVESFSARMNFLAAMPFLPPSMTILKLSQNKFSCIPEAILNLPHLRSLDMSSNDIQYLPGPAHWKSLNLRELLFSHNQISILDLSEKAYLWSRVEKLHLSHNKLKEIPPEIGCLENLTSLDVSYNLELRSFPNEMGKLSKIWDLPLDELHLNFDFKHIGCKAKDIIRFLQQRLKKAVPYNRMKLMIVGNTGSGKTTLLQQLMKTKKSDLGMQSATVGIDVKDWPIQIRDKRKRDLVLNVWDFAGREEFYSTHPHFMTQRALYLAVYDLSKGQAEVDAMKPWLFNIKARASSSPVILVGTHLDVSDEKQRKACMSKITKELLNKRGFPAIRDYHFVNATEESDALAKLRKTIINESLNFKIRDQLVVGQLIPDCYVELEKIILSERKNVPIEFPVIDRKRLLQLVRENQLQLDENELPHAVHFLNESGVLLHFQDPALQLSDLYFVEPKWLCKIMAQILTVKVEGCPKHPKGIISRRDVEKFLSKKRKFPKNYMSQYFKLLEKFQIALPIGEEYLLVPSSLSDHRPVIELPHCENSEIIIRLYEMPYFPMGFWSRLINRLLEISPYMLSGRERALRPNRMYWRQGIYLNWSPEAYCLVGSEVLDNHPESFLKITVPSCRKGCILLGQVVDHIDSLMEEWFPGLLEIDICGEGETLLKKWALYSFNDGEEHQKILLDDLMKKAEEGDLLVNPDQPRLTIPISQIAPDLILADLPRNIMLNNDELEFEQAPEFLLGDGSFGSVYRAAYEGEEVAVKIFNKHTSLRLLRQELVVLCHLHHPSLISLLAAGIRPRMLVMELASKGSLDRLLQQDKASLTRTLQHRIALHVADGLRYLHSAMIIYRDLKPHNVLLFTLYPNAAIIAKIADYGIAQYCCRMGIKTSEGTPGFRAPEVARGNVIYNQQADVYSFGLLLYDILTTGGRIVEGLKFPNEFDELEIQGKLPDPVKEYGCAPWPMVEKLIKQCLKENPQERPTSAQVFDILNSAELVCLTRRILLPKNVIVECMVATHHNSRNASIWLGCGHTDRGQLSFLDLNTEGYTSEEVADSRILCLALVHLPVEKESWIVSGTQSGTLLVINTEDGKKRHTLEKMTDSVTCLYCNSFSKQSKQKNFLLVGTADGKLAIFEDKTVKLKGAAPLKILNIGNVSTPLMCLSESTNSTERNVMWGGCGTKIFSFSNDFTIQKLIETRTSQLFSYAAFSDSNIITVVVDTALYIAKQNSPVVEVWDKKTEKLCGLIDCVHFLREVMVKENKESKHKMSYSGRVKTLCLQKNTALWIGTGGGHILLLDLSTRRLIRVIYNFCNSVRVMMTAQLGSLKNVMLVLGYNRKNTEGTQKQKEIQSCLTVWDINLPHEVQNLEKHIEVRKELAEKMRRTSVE
The experiment in a line: Recombinant cellular LRRK2 AlphaScreen assay (LRRK2 Ser935 phosphorylation). Type of test: cell-based. Particulars: SH-SY5Y cells with BacMam LRRK2, 60 minutes compound incubation, read-out: recombinant cellcular LRRK2 alphaScreen assay (pIC50) (converted). The procedure: Recombinant Cellular LRRK2 AlphaScreen Assay
A BacMam virus expressing full length recombinant LRRK2 was purchased from Invitrogen and amplified by inoculation of SF-9 cells at MOI 0.3 for 4-5 days in Sf-900 III SFM medium supplemented with 3% fetal bovine serum. Infected cell cultures were then centrifuged at 2000 g for 20 minutes, viral supernatant titer determined by anti-gp64 plaque assay and stored at 4° C.
Affinity-purified anti-phospho LRRK2 Ser935 sheep polyclonal antibody (Dzamko et al., 2010, Biochem. J. 430: 405-413) was biotinylated by standard methods (PerkinElmer). Anti-LRRK2 rabbit polyclonal antibody was purchased from Novus Biologicals. AlphaScreen Protein A IgG Kit (including acceptor and donor beads) was purchased from Perkin Elmer.
SH-SY5Y cells were grown in DMEM/F12 medium with 10% dialysed fetal bovine serum and harvested by treatment with 0.5% trypsin-EDTA for 5 minutes at […] followed by centrifugation at 1000 rpm for 4 minutes. The cell pellet was resuspended in Opti-MEM reduced serum media (Invitrogen) at 200,000 cells/ml and mixed with the BacMam LRRK2 virus at MOI=50. 50 μl cell solutions were then dispensed to each well of a 384-well plate and incubated at 37° C., 5% CO2 for 24 hours.
Serial dilutions of test compounds were prepared in Opti-MEM reduced serum media (Invitrogen) and 5.6 ul transferred from compound plate to cell assay plate to achieve a top final assay concentration of 10 uM. DMSO was used in certain wells as controls. Cells were incubated at 37° C., 5% CO2 for 60 minutes. The medium was then removed and cells lysed by addition of 20 ul cell lysis buffer (Cell Signaling Technology) and incubation at 4° C. for 20 minutes. 10 ul of antibody/acceptor bead mix [(1/1000 biotinylated-pS935 LRRK2 antibody, 1/1000 total-LRRK2 antibody, 1/100 Acceptor beads in AlphaScreen detection buffer (25 mM Hepes (pH 7.4), 0.5% Triton X-100, 1 mg/ml Dextran 500 and 0.1% BSA)] was then added to each well and plates incubated for 2 hours at ambient temperature in the dark. 10 μl of donor beads solution (1/33.3 donor beads in AlphaScreen detection buffer) was then added to each well. Following incubation for a further 2 hours at ambient temperature in the dark, plates were read on an EnVision™ plate reader at emission 520-620 nm with excitation 680 nm. Dose response curve data was based on sigmoidal dose-response model.
On the technique in general: Alpha assays give light when donor and acceptor beads are brought close together.
`CCOc1nc(Nc2ccc(C(=O)N3CCOCC3)cc2OC)nc2[nH]ccc12` [Example E1, (4-((4-ethoxy-7H-pyrrolo-[2,3-d]-pyrimidin-2-yl)amino)-3-methoxyphenyl)(morpholino)methanone]: the IC50 was 0.158 µM.

Consider `CCOc1nc(Nc2cc(F)c(C(=O)N3CCOCC3)cc2OC)nc2[nH]ccc12` [Example E2, (4-((4-ethoxy-7H-pyrrolo-[2,3-d]-pyrimidin-2-yl)amino)-2-fluoro-5-methoxyphenyl)(morpholino)methanone], for which the IC50 is 0.2 µM.

For `CCOc1nc(Nc2ccc(C(=O)N3CCN(C)CC3)cc2OC)nc2[nH]ccc12` [Example E3, (4-((4-ethoxy-7H-pyrrolo-[2,3-d]-pyrimidin-2-yl)amino)-3-methoxyphenyl)(4-methylpiperazin-1-yl)-methanone], the IC50 is 0.158 µM.

Take `CCOc1nc(Nc2ccc(C(=O)N3CCC(N4CCN(C)CC4)CC3)cc2OC)nc2[nH]ccc12` [Example E4, (4-((4-ethoxy-7H-pyrrolo-[2,3-d]pyrimidin-2-yl)amino)-3-methoxyphenyl)(4-(4-methylpiperazin-1-yl)-piperidin-1-yl)-methanone]: the IC50 is at most 0.1 µM.

For the compound `CCOc1nc(Nc2ccc(C(=O)N3CCOCC3)cc2)nc2[nH]ccc12` [Example E9, (4-((4-ethoxy-7H-pyrrolo-[2,3-d]pyrimidin-2-yl)amino)phenyl)(morpholino)methanone], the IC50 is at most 0.1 µM.

For `CCOc1nc(Nc2ccc(C(=O)N3CCC4(CC3)CN(C)C4)cc2OC)nc2[nH]ccc12` [Example E13, (4-((4-ethoxy-7H-pyrrolo-[2,3-d]-pyrimidin-2-yl)amino)-3-methoxyphenyl)(2-methyl-2,7-diazaspiro-[3.5]-nonan-7-yl)methanone], the IC50 is at most 0.1 µM.

Regarding `CCOc1nc(Nc2ccc(C(=O)N3CCC4(CC3)CC4)cc2OC)nc2[nH]ccc12` [Example E16, (4-((4-ethoxy-7H-pyrrolo-[2,3-d]-pyrimidin-2-yl)amino)-3-methoxyphenyl)(6-azaspiro-[2.5]octan-6-yl)methanone], the IC50 is 0.398 µM.

For `CCOc1cc(C(=O)N2CCOCC2)ccc1Nc1nc(OCC)c2cc[nH]c2n1` [Example E20, (3-ethoxy-4-((4-ethoxy-7H-pyrrolo-[2,3-d]pyrimidin-2-yl)amino)phenyl)(morpholino)methanone], the IC50 was 0.2 µM.

`CCOc1nc(Nc2ccc(C(=O)N3CCN(C)CC3)cc2OC(C)C)nc2[nH]ccc12` [Example E24, (4-((4-ethoxy-7H-pyrrolo-[2,3-d]pyrimidin-2-yl)amino)-3-isopropoxyphenyl)(4-methylpiperazin-1-yl)methanone]: the IC50 is 0.398 µM.

As to `CCOc1nc(Nc2ccc(C(=O)N3CCOC[C@@H]3C)cc2OC)nc2[nH]ccc12` [Example E27, (S)-(4-((4-ethoxy-7H-pyrrolo-[2,3-d]pyrimidin-2-yl)amino)-3-methoxyphenyl)(3-methylmorpholino)methanone], the IC50 is at most 0.1 µM.

As for `CCOc1nc(Nc2ccc(C(=O)N3CCN(C)CC3)cc2OC)nc2[nH]cc(C)c12` [Example E31, (4-((4-ethoxy-5-methyl-7H-pyrrolo-[2,3-d]pyrimidin-2-yl)amino)-3-methoxyphenyl)(4-methylpiperazin-1-yl)methanone], the IC50 was at most 0.1 µM.

In the case of `CCOc1nc(Nc2ccc(C(=O)N3CCN(C)C[C@H]3C)cc2OC)nc2[nH]ccc12` [Example E40, (R)-(2,4-dimethylpiperazin-1-yl)(4-((4-ethoxy-7H-pyrrolo-[2,3-d]-pyrimidin-2-yl)-amino)-3-methoxyphenyl)methanone], the IC50 was 0.0501 µM.
